Source: the NIST ThermoML archive (doi:10.1021/je9003959)

Assay: xn = mol fraction of the nth substance listed
Conditions: 101 kPa, Liquid; for viscosity: Capillary tube (Ostwald / Ubbelohde) method; for speed of sound: Cylindrical cavity resonance method

CCN1CCCC1=O [1-ethyl-2-pyrrolidinone] + O
Conditions | mass density [kg/m3] | speed of sound [m/s] | viscosity [mPa·s]
293 K, x1 = 0.022 | 1003.49 | 1574.8 | 1.593
293 K, x1 = 0.05 | 1010.45 | 1651.9 | 2.368
293 K, x1 = 0.1 | 1020.31 | 1711.9 | 4.149
293 K, x1 = 0.2 | 1026.26 | 1712.2 | 6.159
293 K, x1 = 0.3 | 1023.9 | 1677.6 | 6.189
293 K, x1 = 0.4 | 1022.18 | 1640.4 | 5.349
293 K, x1 = 0.5 | 1019.16 | 1610.7 | 4.506
293 K, x1 = 0.6 | 1014.04 | 1583.1 | 3.639
293 K, x1 = 0.7 | 1010.43 | 1562.1 | 3.13
293 K, x1 = 0.8 | 1006.66 | 1541.7 | 2.671
293 K, x1 = 0.9 | 1003.19 | 1526.1 | 2.458
293 K, x1 = 1 | 1000.55 | 1511.6 | 2.133
298 K, x1 = 0.022 | 1001.76 | 1580 | 1.433
298 K, x1 = 0.05 | 1007.34 | 1648.9 | 2.047
298 K, x1 = 0.1 | 1016.76 | 1699.4 | 3.418
298 K, x1 = 0.2 | 1021.82 | 1694.2 | 4.849
298 K, x1 = 0.3 | 1019.33 | 1658.6 | 5.029
298 K, x1 = 0.4 | 1016.58 | 1621.2 | 4.386
298 K, x1 = 0.5 | 1014.6 | 1591.5 | 3.856
298 K, x1 = 0.6 | 1009.45 | 1564 | 3.244
298 K, x1 = 0.7 | 1005.98 | 1542.9 | 2.836
298 K, x1 = 0.8 | 1002.26 | 1522.6 | 2.43
298 K, x1 = 0.9 | 998.84 | 1507 | 2.21
298 K, x1 = 1 | 996.24 | 1492.5 | 2.022
303 K, x1 = 0.022 | 999.83 | 1583.9 | 1.254
303 K, x1 = 0.05 | 1002.82 | 1645.1 | 1.767
303 K, x1 = 0.1 | 1013.12 | 1686.7 | 2.842
303 K, x1 = 0.2 | 1017.34 | 1675.8 | 4.088
303 K, x1 = 0.3 | 1014.71 | 1639.3 | 4.164
303 K, x1 = 0.4 | 1012.16 | 1601.7 | 3.621
303 K, x1 = 0.5 | 1010 | 1572.1 | 3.28
303 K, x1 = 0.6 | 1004.1 | 1544.6 | 2.86
303 K, x1 = 0.7 | 1001.5 | 1523.6 | 2.527
303 K, x1 = 0.8 | 997.83 | 1503.4 | 2.218
303 K, x1 = 0.9 | 994.48 | 1487.9 | 2.011
303 K, x1 = 1 | 991.93 | 1473.3 | 1.832
313 K, x1 = 0.022 | 995.35 | 1588.3 | 0.9966
313 K, x1 = 0.05 | 997.46 | 1634.8 | 1.327
313 K, x1 = 0.1 | 1005.63 | 1660.4 | 2.051
313 K, x1 = 0.2 | 1008.28 | 1639.1 | 2.879
313 K, x1 = 0.3 | 1005.38 | 1600.7 | 2.966
313 K, x1 = 0.4 | 1001.82 | 1562.8 | 2.6
313 K, x1 = 0.5 | 1000.71 | 1533.3 | 2.509
313 K, x1 = 0.6 | 995 | 1506 | 2.262
313 K, x1 = 0.7 | 992.48 | 1485.3 | 2.04
313 K, x1 = 0.8 | 988.94 | 1465.2 | 1.777
313 K, x1 = 0.9 | 985.71 | 1449.9 | 1.702
313 K, x1 = 1 | 983.26 | 1435.3 | 1.621
323 K, x1 = 0.022 | 989.91 | 1588.3 | 0.8044
323 K, x1 = 0.05 | 991.01 | 1622.3 | 1.073
323 K, x1 = 0.1 | 997.84 | 1633.2 | 1.358
323 K, x1 = 0.2 | 999.06 | 1602.1 | 2.164
323 K, x1 = 0.3 | 995.92 | 1561.9 | 2.234
323 K, x1 = 0.4 | 992.73 | 1523.7 | 2.014
323 K, x1 = 0.5 | 991.3 | 1494.4 | 1.986
323 K, x1 = 0.6 | 985.81 | 1467.5 | 1.856
323 K, x1 = 0.7 | 983.37 | 1447.1 | 1.67
323 K, x1 = 0.8 | 979.96 | 1427.3 | 1.54
323 K, x1 = 0.9 | 976.89 | 1412.2 | 1.435
323 K, x1 = 1 | 974.56 | 1398 | 1.358
